# Reference: US7235534B2, “Antisense strategy to modulate estrogen receptor response (ER α and/or ER β )” (Institut de Cardiologie de Montreal, priority 2001, dated 2007)
# Tests used:
# [1] = tested on: Porcine aortic endothelial cells (PAEC); test: Mitogenic assay on PAEC (cell count); assay type: cell-based; settings: for inhibition of the 17βE mitogenic activity in PAEC: antagonist 10^−7M pretreatment
# Method: Confluent PAEC and PSMC were rinsed with DMEM and trypsinized. Cells were resuspended in 10 ml of DMEM, 5% FBS, and antibiotics, and a cell count was obtained with a Coulter Counter Z1 (Coulter Electronics, Luton, UK). PAEC and PSMC were seeded at 1×10^4 cells/well of 24-well tissue culture plates (Becton-Dickinson, Rutherford, N.J., U.S.A.) stimulated for 24 h in DMEM, 5% FBS, and antibiotics, and starved for 48 h in DMEM, 0.1% FBS, and antibiotics. […] After trypsinization, cell number was determined by using a Coulter counter.
# Confluent PAEC and PSMC were rinsed with DMEM and trypsinized. Cells were resuspended in 10 mL of DMEM, 5% FBS, and antibiotics, and a cell count was obtained. PAEC and PSMC were initially seeded at 1×10^4cells/well of 24-well tissue culture plates stimulated for 24 hours in DMEM, 5% FBS, and antibiotics with or without antisense oligomers (10^−6 mol/L), and starved for 48 hours in DMEM, 0.1% FBS, and antibiotics with or without antisense oligomers (10^−6 mol/L daily) for G0 synchronization. Initial cell number for growth was determined using a Coulter counter. The cells were stimulated for 72 hours in DMEM, 1% FBS, antibiotics with or without antisense oligomers (10^−6 mol/L daily) and with or without of 17βE (Sigma). After trypsinization, cell number was determined by using a Coulter counter.
# [2] = tested on: Porcine smooth muscle cells (PSMC); test: Chemotactic assay on PSMC (modified Boyden chamber); assay type: cell-based; settings: for reversal of the anti-chemotactic effect of 17βE on PSMC: antagonist 10^−7M before 17βE 10^−8M, PDGF-BB 10 ng/ml
# Method: Cell migration was evaluated using a modified Boyden 48-well microchamber kit (NeuroProbe, Cabin John, MD.). Near confluent EC and PSMC were rinsed with DMEM and trypsinized. Cells were resuspended in DMEM, 5% FBS, and antibiotics, and a cell count was obtained. […] ER antagonists were added 5 minutes before 17βE. Cells were harvested by trypsinization and resuspended in DMEM, 1% FBS, and antibiotics at a concentration of 5×10^5 cells/ml. […] The two sections of the system were separated by a porous polycarbonate filter (5-μm pores), pre-treated with a gelatine solution (1.5 mg/ml), and assembled. Five hours post incubation at 37° C., the nonmigrated cells were scraped with a plastic policeman, and the migrated cells were stained using a Quick-Diff solution. The filter was then mounted on a glass slide, and migrated cells were counted using a microscope adapted to a video camera to obtain a computer-digitized image.
# Cell migration was evaluated using a modified Boyden 48-well microchamber kit (NeuroProbe, Cabin John, MD.). Near confluent PAEC and PSMC were rinsed with DMEM and trypsinized. Cells were resuspended in DMEM, 5% FBS, and antibiotics, and a cell count was obtained. PAEC and PSMC were seeded at 2.5×10^5 cells/well of 6-well tissue culture plates; stimulated for 24 hours in DMEM, 5% FBS, and antibiotics with or without antisense oligomers (10^−6 mol/L) and starved for 48 hours in DMEM, 0.1% FBS, and antibiotics with or without antisense oligomers (10^−6 mol/L daily) with or without 17βE (10^−8 mol/L). Cells were harvested by trypsinization and resuspended in DMEM, 1% FBS, and antibiotics at a concentration of 5×10^5 cells/mL. Fifty μL of this cell suspension with or without antisense oligomers (10^−6 mol/L) treated with or without 17βE (10^−8 mol/L) was added in the higher-chamber of the modified Boyden chamber apparatus, and the lower chamber was filled with DMEM, 1% FBS, antibiotics plus the desired concentration of agonist either 17βE (10^−8 mol/L) or platelet-derived growth factor-BB (PDGF-BB). The 2 sections of the system were separated by a porous polycarbonate filter (5-μm pores size), pretreated with a gelatine solution (1.5 mg/mL), and assembled. Five hours postincubation at 37° C., the non-migrated cells were scraped with a plastic policeman, and the migrated cells were stained using a Quick-Diff solution (Shandon Inc). The filter was then mounted on a glass slide, and migrated cells were counted using a microscope adapted to a video camera to obtain a computer-digitized image.
SMILES,inhibition of the 17βE mitogenic activity in PAEC ([1]; 17βE 10^−8M),reversal of the anti-chemotactic effect of 17βE on PSMC [2],"induction of PAEC proliferation over FBS 1% treatment ([1]; 17βE 10^−8M, 72 h, Example 1)","induction of PAEC proliferation over FBS 1% treatment ([1]; 17βE 10^−8 mol/L, Example 2)","concentration of maximum induction of PAEC proliferation ([1]; 17βE 10^−10 to 10^−7M, DMEM 1% FBS, data not shown)","inhibition of the chemotactic effect of PDGF-BB (10 ng/mL) on PSMC ([2]; 17βE 1^−8 mol/L as printed, Example 2)","inhibition of the chemotactic effect of PDGF-BB (10 ng/ml) on PSMC ([2]; 17βE 10^−8M, Example 1)"
"CC/C(=C(\c1ccc(O)cc1)c1ccc(OCCN(C)C)cc1)c1ccccc1 [4-OHT, 4-OH-Tamoxifen]",inhibited completely,reversed completely,,,,,
"C[C@]12CC[C@@H]3c4ccc(O)cc4CC[C@H]3[C@@H]1CC[C@@H]2O [17βE, 17-beta-estradiol]",,,37%,123%,10^−8 M,inhibited completely,inhibited completely
"O=C(c1ccc(OCN2CCCCC2)cc1)c1c(-c2ccc(O)cc2)sc2cc(O)ccc12 [Ral, Raloxifen]",inhibited completely,reversed completely,,,,,
"CC/C(=C(\c1ccccc1)c1ccc(OCCN(C)C)cc1)c1ccccc1 [Tam, Tamoxifen]",inhibited completely,reversed completely,,,,,
